Data on nine compounds can be found in US20250163104A1, “MACROCYCLIC IMMUNOMODULATORS” (priority 2021, published 2025).

Where a SMILES comes first, the peptide text is derived from it. Bridges are numbered along the chain shown (N, C = ends). [ ]: non-standard residue; d: D form. The star is where a group is joined. Phe(3-CF3) = N[C@@H](Cc1cccc(C(F)(F)F)c1)C(=O)O; Ala(morpholin-4-yl) = N[C@@H](CN1CCOCC1)C(=O)O; Phe(4-COOH) = N[C@@H](Cc1ccc(C(=O)O)cc1)C(=O)O; Bip = N[C@@H](Cc1ccc(-c2ccccc2)cc1)C(=O)O; Phe(3-Me) = Cc1cccc(C[C@H](N)C(=O)O)c1; Abu(3S-NH2) = C[C@H](N)[C@H](N)C(=O)O; Val(3-OH) = CC(C)(O)[C@H](N)C(=O)O; Cha = N[C@@H](CC1CCCCC1)C(=O)O; Tle = CC(C)(C)[C@H](N)C(=O)O; Carboxymethyl = O=C(O)C*; Nle = CCCC[C@H](N)C(=O)O; Orn = NCCC[C@H](N)C(=O)O; Pra = C#CC[C@H](N)C(=O)O; Dab = NCC[C@H](N)C(=O)O; Nva = CCC[C@H](N)C(=O)O

Broadly, the IC50 is the concentration that inhibits the measured activity by half.

For the test, the target named is T1, human PD-1 / PD-L1-Ig binding on Jurkat cell line over-expressing human PD-1 (Jurkat-PD-1) (Homo sapiens, UniProt Q15116).
T1 construct: expressed in transfected cells; host or cells: Jurkat
T1 sequence (Q15116 25-288): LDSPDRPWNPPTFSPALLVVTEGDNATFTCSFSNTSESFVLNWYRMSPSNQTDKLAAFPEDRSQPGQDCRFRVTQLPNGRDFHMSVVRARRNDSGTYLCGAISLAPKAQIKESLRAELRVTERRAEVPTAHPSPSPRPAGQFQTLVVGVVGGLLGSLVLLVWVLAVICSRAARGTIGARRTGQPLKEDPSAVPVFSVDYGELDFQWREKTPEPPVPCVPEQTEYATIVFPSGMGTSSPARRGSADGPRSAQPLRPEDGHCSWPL
Briefly: Jurkat-PD-1 Cell Binding High-Content Screening Assay (CBA). To be noted: Jurkat-PD-1 cells, PE-labeled PD-L1-Ig 20 nM final; read-out: Jurkat HPD1_PDL1 IC50. It counts as cell-based. Summed up: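 PE-PD-L1-Ig 20 nM final; cells in DMEM/10% FCS; cpd pre-incubation 2 h, 37° C; ligand 1 h; PFA fix + Hoechst 33342; high-content imaging read-out.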
Take `C#CC[C@H](NC(=O)[C@@H]1CSCC(=O)N[C@@H](CCC)C(=O)N[C@@H](Cc2ccc(OCC(=O)O)cc2)C(=O)N[C@@H](CC(=O)O)C(=O)N[C@@H](Cc2cccc(C)c2)C(=O)N[C@@H](Cc2ccc(OCC(=O)O)cc2)C(=O)N[C@@H](Cc2ccc(-c3ccccc3)cc2)C(=O)N[C@@H](Cc2ccc(OCC(=O)O)cc2)C(=O)N[C@@H](CCCN)C(=O)N[C@H](CC(C)C)C(=O)N[C@@H](CCC)C(=O)N[C@@H](CC2CCCCC2)C(=O)N[C@@H](C(C)C)C(=O)N[C@@H](CCC(=O)O)C(=O)N1)C(=O)O` [Compound 2701] ({CH2CO}-[Nva]Y(Carboxymethyl)D[Phe(3-Me)]Y(Carboxymethyl)[Bip]Y(Carboxymethyl)[Orn][dL][Nva][Cha]VEC[Pra]-OH; thioether N-14): the IC50 came to 163 nM.

In the case of `C#CC[C@H](NC(=O)[C@@H]1CSCC(=O)N[C@@H](CCC)C(=O)N[C@@H](Cc2ccc(OCC(=O)O)cc2)C(=O)N[C@@H](CC(=O)O)C(=O)N[C@@H](Cc2cccc(C)c2)C(=O)N[C@@H](Cc2ccc(OCC(=O)O)cc2)C(=O)N[C@@H](Cc2ccc(-c3ccccc3)cc2)C(=O)N[C@@H](Cc2ccc(OCC(=O)O)cc2)C(=O)N[C@@H](CCCN)C(=O)N[C@H](CC(C)C)C(=O)N[C@@H](CCN)C(=O)N[C@@H](CC2CCCCC2)C(=O)N[C@@H](C(C)C)C(=O)N[C@@H](CCC(=O)O)C(=O)N1)C(=O)O` [Compound 2702] ({CH2CO}-[Nva]Y(Carboxymethyl)D[Phe(3-Me)]Y(Carboxymethyl)[Bip]Y(Carboxymethyl)[Orn][dL][Dab][Cha]VEC[Pra]-OH; thioether N-14), the IC50 came to 50.5 nM.

With `C#CC[C@H](NC(=O)[C@@H]1CSCC(=O)N[C@@H](CCC)C(=O)N[C@@H](Cc2ccc(OCC(=O)O)cc2)C(=O)N[C@@H](CC(=O)O)C(=O)N[C@@H](Cc2cccc(C)c2)C(=O)N[C@@H](Cc2ccc(OCC(=O)O)cc2)C(=O)N[C@@H](Cc2ccc(-c3ccccc3)cc2)C(=O)N[C@@H](Cc2ccc(OCC(=O)O)cc2)C(=O)N[C@@H](CCCC)C(=O)N[C@H](CC(C)C)C(=O)N[C@@H](CCN)C(=O)N[C@@H](CC2CCCCC2)C(=O)N[C@@H](C(C)C)C(=O)N[C@@H](CCC(=O)O)C(=O)N1)C(=O)O` [Compound 2703] ({CH2CO}-[Nva]Y(Carboxymethyl)D[Phe(3-Me)]Y(Carboxymethyl)[Bip]Y(Carboxymethyl)[Nle][dL][Dab][Cha]VEC[Pra]-OH; thioether N-14), the IC50 was 412 nM.

Take `C#CC[C@H](NC(=O)[C@@H]1CSCC(=O)N[C@@H](CCN)C(=O)N[C@@H](Cc2ccc(C(=O)O)cc2)C(=O)N[C@@H](CC(=O)O)C(=O)N[C@@H](Cc2cccc(C)c2)C(=O)N[C@@H](Cc2ccc(C(=O)O)cc2)C(=O)N[C@@H](Cc2ccc(-c3ccccc3)cc2)C(=O)N[C@@H](Cc2ccc(C(=O)O)cc2)C(=O)N[C@@H](CCCN)C(=O)N[C@H](CC(C)C)C(=O)N[C@@H](CCN)C(=O)N[C@@H](CC2CCCCC2)C(=O)N[C@@H](C(C)(C)O)C(=O)N[C@@H](CO)C(=O)N1)C(=O)O` [Compound 2704] ({CH2CO}-[Dab][Phe(4-COOH)]D[Phe(3-Me)][Phe(4-COOH)][Bip][Phe(4-COOH)][Orn][dL][Dab][Cha][Val(3-OH)]SC[Pra]-OH; thioether N-14): the 50% inhibitory concentration (IC50) came out at 316 nM.

Turning to `C#CC[C@H](NC(=O)[C@H](CCN)NC(=O)[C@@H]1CSCC(=O)N[C@@H](CC(C)C)C(=O)N[C@@H](Cc2ccc(C(=O)O)cc2)C(=O)N[C@@H](CC(=O)O)C(=O)N[C@@H](Cc2cccc(C)c2)C(=O)N[C@@H](Cc2ccc(C(=O)O)cc2)C(=O)N[C@@H](Cc2ccc(-c3ccccc3)cc2)C(=O)N[C@@H](Cc2ccc(C(=O)O)cc2)C(=O)N[C@@H](CCCN)C(=O)N[C@H](CC(C)C)C(=O)N[C@@H](CCN)C(=O)N[C@@H](CC2CCCCC2)C(=O)N[C@@H](C(C)C)C(=O)N[C@@H](CCC(=O)O)C(=O)N1)C(=O)O` [Compound 2706] ({CH2CO}-L[Phe(4-COOH)]D[Phe(3-Me)][Phe(4-COOH)][Bip][Phe(4-COOH)][Orn][dL][Dab][Cha]VEC[Dab][Pra]-OH; thioether N-14), the half-inhibitory concentration (IC50) worked out at 2.4 nM.

In the case of `C#CC[C@H](NC(=O)[C@H](CCN)NC(=O)[C@@H]1CSCC(=O)N[C@@H](CC(C)C)C(=O)N[C@@H](Cc2ccc(OCC(=O)O)cc2)C(=O)N[C@@H](CC(=O)O)C(=O)N[C@@H](Cc2cccc(C)c2)C(=O)N[C@@H](Cc2ccc(OCC(=O)O)cc2)C(=O)N[C@@H](Cc2ccc(-c3ccccc3)cc2)C(=O)N[C@@H](Cc2ccc(OCC(=O)O)cc2)C(=O)N[C@@H](CCCN)C(=O)N[C@H](CC(C)C)C(=O)N[C@@H](CCN)C(=O)N[C@@H](CC2CCCCC2)C(=O)N[C@@H](C(C)C)C(=O)N[C@@H](CCC(=O)O)C(=O)N1)C(=O)O` [Compound 2707] ({CH2CO}-LY(Carboxymethyl)D[Phe(3-Me)]Y(Carboxymethyl)[Bip]Y(Carboxymethyl)[Orn][dL][Dab][Cha]VEC[Dab][Pra]-OH; thioether N-14), the half-maximal inhibitory concentration (IC50) was 5 nM.

As for `CC(C)C[C@H]1NC(=O)[C@H](CCCN)NC(=O)[C@H](Cc2ccc(C(=O)O)cc2)NC(=O)[C@H](Cc2ccc(-c3ccccc3)cc2)NC(=O)[C@H](Cc2ccc(C(=O)O)cc2)NC(=O)[C@H](Cc2cccc(C(F)(F)F)c2)NC(=O)[C@H](CC(=O)O)NC(=O)[C@H](Cc2ccc(C(=O)O)cc2)NC(=O)[C@H]([C@H](C)N)NC(=O)CSC[C@@H](C(=O)N[C@@H](CCN)C(N)=O)NC(=O)[C@H](CO)NC(=O)[C@H](C(C)(C)C)NC(=O)[C@H](CC2CCCCC2)NC(=O)[C@H](CCN)NC1=O` [Example 2708] ({CH2CO}-[Abu(3S-NH2)][Phe(4-COOH)]D[Phe(3-CF3)][Phe(4-COOH)][Bip][Phe(4-COOH)][Orn][dL][Dab][Cha][Tle]SC[Dab]-NH2; thioether N-14), the IC50 was 0.6 nM.

For `Cc1cccc(C[C@@H]2NC(=O)[C@H](CC(=O)O)NC(=O)[C@H](Cc3ccc(C(=O)O)cc3)NC(=O)[C@H](CCN)NC(=O)CSC[C@@H](C(=O)N[C@@H](CCN)C(N)=O)NC(=O)[C@H](CO)NC(=O)[C@H](C(C)(C)O)NC(=O)[C@H](CC3CCCCC3)NC(=O)[C@H](CCN)NC(=O)[C@@H](CC(C)C)NC(=O)[C@H](CCCN)NC(=O)[C@H](Cc3ccc(C(=O)O)cc3)NC(=O)[C@H](Cc3ccc(-c4ccccc4)cc3)NC(=O)[C@H](Cc3ccc(C(=O)O)cc3)NC2=O)c1` [Example 2709] ({CH2CO}-[Dab][Phe(4-COOH)]D[Phe(3-Me)][Phe(4-COOH)][Bip][Phe(4-COOH)][Orn][dL][Dab][Cha][Val(3-OH)]SC[Dab]-NH2; thioether N-14), the IC50 worked out at 2.3 nM.

As for `CC(C)C[C@H]1NC(=O)[C@H](CCCN)NC(=O)[C@H](Cc2ccc(C(=O)O)cc2)NC(=O)[C@H](Cc2ccc(-c3ccccc3)cc2)NC(=O)[C@H](Cc2ccc(C(=O)O)cc2)NC(=O)[C@H](Cc2cccc(C(F)(F)F)c2)NC(=O)[C@H](CC(=O)O)NC(=O)[C@H](Cc2ccc(C(=O)O)cc2)NC(=O)[C@H](CN2CCOCC2)NC(=O)CSC[C@@H](C(=O)N[C@@H](CCN)C(N)=O)NC(=O)[C@H](CO)NC(=O)[C@H](C(C)(C)O)NC(=O)[C@H](CC2CCCCC2)NC(=O)[C@H](CCN)NC1=O` [Example 2710] ({CH2CO}-[Ala(morpholin-4-yl)][Phe(4-COOH)]D[Phe(3-CF3)][Phe(4-COOH)][Bip][Phe(4-COOH)][Orn][dL][Dab][Cha][Val(3-OH)]SC[Dab]-NH2; thioether N-14), the IC50 worked out at 1.2 nM.
